{"source": "paper PMC5218480", "about": "(PLoS ONE, 2017)", "test_system": "MV-4-11 cells", "assay": "Gene expression microarray analysis (Affymetrix PrimeView) and GSEA", "type": "cell-based, human", "design": "RFU PODN (11730768_x_at) / Fold change /veh PODN (11730768_x_at) / RFU LINC00158 (11744669_a_at) / Fold change /veh LINC00158 (11744669_a_at) / RFU DUSP10 (11751237_a_at) / Fold change /veh DUSP10 (11751237_a_at) / RFU ID3 (11757404_x_at) / Fold change /veh ID3 (11757404_x_at) / RFU PLEKHG5 (11737974_s_at) / Fold change /veh PLEKHG5 (11737974_s_at) / RFU LRRC4B (11730491_at) / Fold change /veh LRRC4B (11730491_at) / RFU GIMAP4 (11747438_a_at) / Fold change /veh GIMAP4 (11747438_a_at) / RFU KRT8 (11758183_x_at) / Fold change /veh KRT8 (11758183_x_at) / RFU CNN1 (11734310_a_at) / Fold change /veh CNN1 (11734310_a_at) / RFU VPS37D (11726825_at) / Fold change /veh VPS37D (11726825_at) / RFU C10orf10 (11716522_x_at) / Fold change /veh C10orf10 (11716522_x_at) / RFU KIR2DL2 /// KIR2DL4 /// KIR2DL5A /// KIR2DL5B /// KIR2DS1 /// KIR2DS2 /// KIR2DS3 /// KIR2DS4 /// KIR3DL3 /// KIR3DL3 /// KIR3DS1 (11738374_at) / Fold change /veh KIR2DL2 /// KIR2DL4 /// KIR2DL5A /// KIR2DL5B /// KIR2DS1 /// KIR2DS2 /// KIR2DS3 /// KIR2DS4 /// KIR3DL3 /// KIR3DL3 /// KIR3DS1 (11738374_at) / RFU C1QL1 (11718748_at) / Fold change /veh C1QL1 (11718748_at) / RFU TMPRSS4 (11747572_a_at) / Fold change /veh TMPRSS4 (11747572_a_at) / RFU HAMP (11756126_x_at) / Fold change /veh HAMP (11756126_x_at) / RFU RNFT2 (11725882_a_at) / Fold change /veh RNFT2 (11725882_a_at) / RFU NR4A2 (11747474_a_at) / Fold change /veh NR4A2 (11747474_a_at) / RFU ABCC12 (11746883_a_at) / Fold change /veh ABCC12 (11746883_a_at) / RFU TMEM136 (11760407_x_at) / Fold change /veh TMEM136 (11760407_x_at) / RFU CLDN22 /// WWC2 (11732394_at) / Fold change /veh CLDN22 /// WWC2 (11732394_at) / RFU HLA-DPB1 (11760878_x_at) / Fold change /veh HLA-DPB1 (11760878_x_at) / RFU SPINT1 (11716480_a_at) / Fold change /veh SPINT1 (11716480_a_at) / RFU GAP43 (11754022_s_at) / Fold change /veh GAP43 (11754022_s_at) / RFU A4GNT (11735810_at) / Fold change /veh A4GNT (11735810_at) / RFU PRB3 (11715151_x_at) / Fold change /veh PRB3 (11715151_x_at) / RFU TUBB4B (11761932_at) / Fold change /veh TUBB4B (11761932_at) / RFU CAPN14 (11732068_a_at) / Fold change /veh CAPN14 (11732068_a_at) / RFU TMCC2 (11721928_a_at) / Fold change /veh TMCC2 (11721928_a_at) / RFU IRGQ (11745062_a_at) / Fold change /veh IRGQ (11745062_a_at) / RFU FAM174B (11720279_a_at) / Fold change /veh FAM174B (11720279_a_at) / RFU TMPRSS4 (11748680_a_at) / Fold change /veh TMPRSS4 (11748680_a_at) / RFU FAM212B (11763350_a_at) / Fold change /veh FAM212B (11763350_a_at) / RFU PLEKHG5 (11743358_a_at) / Fold change /veh PLEKHG5 (11743358_a_at) / RFU ZSCAN30 (11745921_a_at) / Fold change /veh ZSCAN30 (11745921_a_at) / RFU CMKLR1 (11741424_a_at) / Fold change /veh CMKLR1 (11741424_a_at) / RFU LOC101060620 /// MAPK8IP1 (11723275_at) / Fold change /veh LOC101060620 /// MAPK8IP1 (11723275_at) / RFU SPTSSB (11747773_x_at) / Fold change /veh SPTSSB (11747773_x_at) / RFU PRSS12 (11739890_at) / Fold change /veh PRSS12 (11739890_at) / RFU BIN1 (11741810_x_at) / Fold change /veh BIN1 (11741810_x_at) / RFU WNT11 (11732464_a_at) / Fold change /veh WNT11 (11732464_a_at) / RFU C10orf10 (11716521_a_at) / Fold change /veh C10orf10 (11716521_a_at) / RFU C5orf56 (11738089_at) / Fold change /veh C5orf56 (11738089_at) / RFU CYB561 (11721691_x_at) / Fold change /veh CYB561 (11721691_x_at) / RFU ANKRD19P (11752326_a_at) / Fold change /veh ANKRD19P (11752326_a_at) / RFU OR2T12 /// OR2T33 /// OR2T8 (11738714_s_at) / Fold change /veh OR2T12 /// OR2T33 /// OR2T8 (11738714_s_at) / RFU VCAN (11748164_a_at) / Fold change /veh VCAN (11748164_a_at) / RFU JSRP1 (11732532_at) / Fold change /veh JSRP1 (11732532_at) / RFU KRTAP10-11 (11738290_x_at) / Fold change /veh KRTAP10-11 (11738290_x_at) / RFU MYO3A (11730013_a_at) / Fold change /veh MYO3A (11730013_a_at) / RFU EBF3 (11725865_a_at) / Fold change /veh EBF3 (11725865_a_at) / RFU CAMK2N1 (11719241_x_at) / Fold change /veh CAMK2N1 (11719241_x_at) / RFU C5orf56 (11738088_a_at) / Fold change /veh C5orf56 (11738088_a_at) / RFU OLFML3 (11715873_a_at) / Fold change /veh OLFML3 (11715873_a_at) / RFU LOC100653217 /// NTM (11731650_a_at) / Fold change /veh LOC100653217 /// NTM (11731650_a_at) / RFU MAPK11 (11762145_a_at) / Fold change /veh MAPK11 (11762145_a_at) / RFU FIZ1 (11724087_x_at) / Fold change /veh FIZ1 (11724087_x_at) / RFU OASL (11726364_x_at) / Fold change /veh OASL (11726364_x_at) / RFU SOX15 (11748057_x_at) / Fold change /veh SOX15 (11748057_x_at) / RFU CD79A (11719716_a_at) / Fold change /veh CD79A (11719716_a_at) / RFU HIST1H1D (11736915_at) / Fold change /veh HIST1H1D (11736915_at) / RFU CASKIN2 (11723855_a_at) / Fold change /veh CASKIN2 (11723855_a_at) / RFU LOC730098 (11760151_x_at) / Fold change /veh LOC730098 (11760151_x_at) / RFU OR4N2 (11742367_at) / Fold change /veh OR4N2 (11742367_at) / RFU PRRT2 (11749266_a_at) / Fold change /veh PRRT2 (11749266_a_at) / RFU SNX32 (11753110_a_at) / Fold change /veh SNX32 (11753110_a_at) / RFU CDHR5 (11726645_a_at) / Fold change /veh CDHR5 (11726645_a_at) / RFU RCAN1 (11760418_a_at) / Fold change /veh RCAN1 (11760418_a_at) / RFU FAM167A (11723789_a_at) / Fold change /veh FAM167A (11723789_a_at) / RFU FAM26E (11764081_at) / Fold change /veh FAM26E (11764081_at) / RFU ISYNA1 (11749810_s_at) / Fold change /veh ISYNA1 (11749810_s_at) / RFU ACY1 (11761880_at) / Fold change /veh ACY1 (11761880_at) / RFU 11764098_at / Fold change /veh 11764098_at / RFU SAMD14 (11745864_x_at) / Fold change /veh SAMD14 (11745864_x_at) / RFU NPB (11741838_a_at) / Fold change /veh NPB (11741838_a_at) / RFU TMPRSS6 (11731388_a_at) / Fold change /veh TMPRSS6 (11731388_a_at) / RFU KRTAP10-2 (11738614_at) / Fold change /veh KRTAP10-2 (11738614_at) / RFU ARHGAP8 /// PRR5-ARHGAP8 (11727945_x_at) / Fold change /veh ARHGAP8 /// PRR5-ARHGAP8 (11727945_x_at) / RFU KRTAP5-7 /// NADSYN1 (11734609_at) / Fold change /veh KRTAP5-7 /// NADSYN1 (11734609_at) / RFU RASL12 (11751679_a_at) / Fold change /veh RASL12 (11751679_a_at) / RFU CDKN2B (11736163_a_at) / Fold change /veh CDKN2B (11736163_a_at) / RFU PRF1 (11729649_at) / Fold change /veh PRF1 (11729649_at) / RFU, ZNF638 /// ZNF638-IT1 / Fold change vs veh, ZNF638 /// ZNF638-IT1 / RFU, PANK3 / Fold change vs veh, PANK3 / RFU, SH3YL1 / Fold change vs veh, SH3YL1 / RFU, ZEB2 / Fold change vs veh, ZEB2 / RFU, NRIP1 / Fold change vs veh, NRIP1 / RFU, PTTG1IP / Fold change vs veh, PTTG1IP / RFU, CAPN2 / Fold change vs veh, CAPN2 / RFU, MED14 / Fold change vs veh, MED14 / RFU, SNORA58 / Fold change vs veh, SNORA58 / RFU, C1orf63 / Fold change vs veh, C1orf63 / RFU, LRRFIP1 / Fold change vs veh, LRRFIP1 / RFU, NDUFAF7 / Fold change vs veh, NDUFAF7 / RFU, SLC12A2 / Fold change vs veh, SLC12A2 / RFU, IBTK / Fold change vs veh, IBTK / RFU, ESF1 / Fold change vs veh, ESF1 / Fold change vs veh, TMEM50B / RFU, TAOK1 / Fold change vs veh, TAOK1 / RFU, ACBD3 / Fold change vs veh, ACBD3 / RFU, TMA16 / Fold change vs veh, TMA16 / RFU, RWDD3 / Fold change vs veh, RWDD3 / RFU, BCAT1 / Fold change vs veh, BCAT1 / RFU, EDEM3 / Fold change vs veh, EDEM3 / RFU, TMEM33 / Fold change vs veh, TMEM33 / RFU, WDR75 / Fold change vs veh, WDR75 / RFU, AHCTF1 / Fold change vs veh, AHCTF1 / RFU, TFRC / Fold change vs veh, TFRC / RFU, ZDHHC17 / Fold change vs veh, ZDHHC17 / RFU, NOM1 / Fold change vs veh, NOM1 / RFU, ARL8B / Fold change vs veh, ARL8B / RFU, ZBTB11 / Fold change vs veh, ZBTB11 / RFU, TAMM41 / Fold change vs veh, TAMM41 / RFU, KIAA1704 /// LOC100996395 / Fold change vs veh, KIAA1704 /// LOC100996395 / RFU, ING1 / Fold change vs veh, ING1 / RFU, TRMT61B / Fold change vs veh, TRMT61B / RFU, FUBP3 / Fold change vs veh, FUBP3 / RFU, TP53 / Fold change vs veh, TP53 / RFU, TNKS2 / Fold change vs veh, TNKS2 / RFU, ZFP14 / Fold change vs veh, ZFP14 / RFU, ACTR2 / Fold change vs veh, ACTR2 / RFU, PPP3R1 / Fold change vs veh, PPP3R1 / RFU, PIK3R1 / Fold change vs veh, PIK3R1 / RFU, HNRNPA1 / Fold change vs veh, HNRNPA1 / RFU, RNF170 / Fold change vs veh, RNF170 / RFU, ZNF28 / Fold change vs veh, ZNF28 / RFU, RNGTT / Fold change vs veh, RNGTT / RFU, OGT / Fold change vs veh, OGT / RFU, BRD1 / Fold change vs veh, BRD1 / RFU, MARS / Fold change vs veh, MARS / RFU, ZNF655 / Fold change vs veh, ZNF655 / RFU, FAHD1 / Fold change vs veh, FAHD1 / RFU, BDP1 / Fold change vs veh, BDP1 / RFU, LRRCC1 / Fold change vs veh, LRRCC1 / RFU, ARID1A / Fold change vs veh, ARID1A / RFU, ZNF146 / Fold change vs veh, ZNF146 / RFU, ZNF330 / Fold change vs veh, ZNF330 / RFU, GPN3 / Fold change vs veh, GPN3 / RFU, C9orf123 / Fold change vs veh, C9orf123 / RFU, N4BP2L2 / Fold change vs veh, N4BP2L2 / RFU, ARFIP1 / Fold change vs veh, ARFIP1 / RFU, FAM179B / Fold change vs veh, FAM179B / RFU, BCL10 / Fold change vs veh, BCL10 / RFU, UHRF1BP1L / Fold change vs veh, UHRF1BP1L / RFU, BET1 / Fold change vs veh, BET1 / RFU, CNOT2 / Fold change vs veh, CNOT2 / RFU, ZNF268 / Fold change vs veh, ZNF268 / Fold change vs veh, ZNF507 / RFU, DGCR2 / Fold change vs veh, DGCR2 / RFU, WDSUB1 / Fold change vs veh, WDSUB1 / Fold change vs veh, HSP90B1 /// MIR3652 / RFU, ADSS / Fold change vs veh, ADSS / RFU, GK / Fold change vs veh, GK / RFU, ZNF148 / Fold change vs veh, ZNF148 / RFU, TAF9 / Fold change vs veh, TAF9 / RFU, SLC1A5 / Fold change vs veh, SLC1A5 / RFU, SLMO2 / Fold change vs veh, SLMO2 / RFU, ABCC4 / Fold change vs veh, ABCC4 / RFU, LOC101060439 /// RAP1B / Fold change vs veh, LOC101060439 /// RAP1B / RFU, RFX7 / Fold change vs veh, RFX7 / RFU, GTPBP10 / Fold change vs veh, GTPBP10 / RFU, CNEP1R1 / Fold change vs veh, CNEP1R1 / RFU, BIVM-ERCC5 /// ERCC5 / Fold change vs veh, BIVM-ERCC5 /// ERCC5 / RFU, ILF3 / Fold change vs veh, ILF3 / RFU 11762660_at / Fold change /veh 11762660_at / RFU VCAN (11757783_s_at) / Fold change /veh VCAN (11757783_s_at) / RFU DDX43 (11728927_at) / Fold change /veh DDX43 (11728927_at) / RFU KRT8 (11758188_x_at) / Fold change /veh KRT8 (11758188_x_at) / RFU NKD1 (11759106_at) / Fold change /veh NKD1 (11759106_at) / RFU SRD5A1 (11742802_a_at) / Fold change /veh SRD5A1 (11742802_a_at) / RFU TPSAB1 /// TPSB2 (11721975_s_at) / Fold change /veh TPSAB1 /// TPSB2 (11721975_s_at) / RFU GSTM3 (11746129_a_at) / Fold change /veh GSTM3 (11746129_a_at) / RFU IL23R (11737362_x_at) / Fold change /veh IL23R (11737362_x_at) / RFU TMEM51 (11727254_a_at) / Fold change /veh TMEM51 (11727254_a_at) / RFU PIWIL2 (11732686_x_at) / Fold change /veh PIWIL2 (11732686_x_at) / RFU ORM1 (11744905_x_at) / Fold change /veh ORM1 (11744905_x_at) / RFU CCDC152 (11743942_at) / Fold change /veh CCDC152 (11743942_at) / RFU ECM1 (11717891_a_at) / Fold change /veh ECM1 (11717891_a_at) / RFU IL23R (11748794_a_at) / Fold change /veh IL23R (11748794_a_at) / RFU TNFAIP8L3 (11732012_x_at) / Fold change /veh TNFAIP8L3 (11732012_x_at) / RFU MBOAT4 (11741988_at) / Fold change /veh MBOAT4 (11741988_at) / RFU 11764193_at / Fold change /veh 11764193_at / RFU TMEM53 (11763286_at) / Fold change /veh TMEM53 (11763286_at) / RFU MAGEB2 (11727129_at) / Fold change /veh MAGEB2 (11727129_at) / RFU TMEM200A (11744735_a_at) / Fold change /veh TMEM200A (11744735_a_at) / RFU CCDC152 (11751479_a_at) / Fold change /veh CCDC152 (11751479_a_at) / RFU FAM211A (11726209_a_at) / Fold change /veh FAM211A (11726209_a_at) / RFU RGS16 (11746705_a_at) / Fold change /veh RGS16 (11746705_a_at) / RFU VCAN (11755009_s_at) / Fold change /veh VCAN (11755009_s_at) / RFU RHOB (11743442_s_at) / Fold change /veh RHOB (11743442_s_at) / RFU RGS16 (11720943_a_at) / Fold change /veh RGS16 (11720943_a_at) / RFU RGS16 (11720944_at) / Fold change /veh RGS16 (11720944_at) / RFU, VPS4B / Fold change vs veh, VPS4B / RFU, CREB1 / Fold change vs veh, CREB1 / RFU, DNAJC13 / Fold change vs veh, DNAJC13 / RFU, GNAQ / Fold change vs veh, GNAQ / RFU, CDK5R1 / Fold change vs veh, CDK5R1 / RFU, ZRANB3 / Fold change vs veh, ZRANB3 / RFU, CUL4A / Fold change vs veh, CUL4A / RFU, CCNY / Fold change vs veh, CCNY / RFU, UFL1 / Fold change vs veh, UFL1 / RFU, COG3 / Fold change vs veh, COG3 / RFU, DIAPH2 / Fold change vs veh, DIAPH2 / RFU, SKA2 / Fold change vs veh, SKA2 / RFU, AFF3 / Fold change vs veh, AFF3 / RFU, LMF1 / Fold change vs veh, LMF1 / RFU, IPO11 / Fold change vs veh, IPO11 / RFU, DFFB / Fold change vs veh, DFFB / RFU, FOXP1 / Fold change vs veh, FOXP1 / RFU, CARD8 / Fold change vs veh, CARD8 / RFU, STRN3 / Fold change vs veh, STRN3 / RFU, ADK / Fold change vs veh, ADK / RFU, RASSF2 / Fold change vs veh, RASSF2 / RFU, WIPF1 / Fold change vs veh, WIPF1 / RFU, LARP1B / Fold change vs veh, LARP1B / RFU, RASA1 / Fold change vs veh, RASA1 / RFU, RB1 / Fold change vs veh, RB1 / RFU, PPFIA1 / Fold change vs veh, PPFIA1 / RFU, MAT2A / Fold change vs veh, MAT2A / RFU, CCT5 / Fold change vs veh, CCT5 / RFU, WDR92 / Fold change vs veh, WDR92 / RFU, CUX1 / Fold change vs veh, CUX1 / RFU, TTC7A / Fold change vs veh, TTC7A / RFU, TMEM135 / Fold change vs veh, TMEM135 / RFU, DEPTOR / Fold change vs veh, DEPTOR / RFU, CPM / Fold change vs veh, CPM / RFU, DNAJB6 / Fold change vs veh, DNAJB6 / RFU, CACNA2D3 / Fold change vs veh, CACNA2D3 / RFU, DTX4 / Fold change vs veh, DTX4 / RFU, TFCP2 / Fold change vs veh, TFCP2 / RFU, GMCL1 /// GMCL1P1 / Fold change vs veh, GMCL1 /// GMCL1P1 / RFU, AEBP2 / Fold change vs veh, AEBP2 / RFU, SNHG1 /// SNORD22 /// SNORD25 /// SNORD26 /// SNORD27 /// SNORD28 /// SNORD29 /// SNORD31 / Fold change vs veh, SNHG1 /// SNORD22 /// SNORD25 /// SNORD26 /// SNORD27 /// SNORD28 /// SNORD29 /// SNORD31 / Fold change (Aza/veh), C12orf56 (ProbeSet 11735607_a_at) / Fold change (ACY-1035/veh), C12orf56 (ProbeSet 11735607_a_at) / Fold change (Aza/veh), FGFR1OP (ProbeSet 11751329_s_at) / Fold change (ACY-1035/veh), FGFR1OP (ProbeSet 11751329_s_at) / Fold change (Aza/veh), VPS36 (ProbeSet 11739960_a_at) / Fold change (ACY-1035/veh), VPS36 (ProbeSet 11739960_a_at) / RFU SYPL1 (11715823_x_at) / Fold change /veh SYPL1 (11715823_x_at) / RFU IGFBP7 (11715501_s_at) / Fold change /veh IGFBP7 (11715501_s_at) / RFU REEP3 (11722064_at) / Fold change /veh REEP3 (11722064_at) / RFU IGLL1 (11728026_x_at) / Fold change /veh IGLL1 (11728026_x_at): dose or concentration left out as unconfirmed", "conditions": "ProbeSet 11743882_a_at; LIST D", "data": [{"smiles": "Nc1ncn([C@@H]2O[C@H](CO)[C@@H](O)[C@H]2O)c(=O)n1", "note": "[azacitidine]", "values": [{"measurement": "Fold change vs veh, STRN3", "result": 0.74}]}]}
